In PubChem BioAssay AID256 (DTP/NCI, 2004):
Where “and” joins values, the source holds several entries; their conditions need not be identical. Equal entries are not always repeated. Inconclusive results and toxic doses are left out. How the source made its calls: active means survival T/C of 150% or more; inactive means T/C below 125% in these data.

Test system: CD2F1 mice, L1210 leukemia ip, survival T/C
Test: NCI In Vivo Anticancer Drug Screen. Data for tumor model L1210 Leukemia (intraperitoneal) in CD2F1 (CDF1) mice
Details: higher = longer survival
Outline: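 Ratio T/C, where T is the treated-group value and C the vehicle-dosed control value, from mice implanted with a transplantable tumor.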

[1] = endpoint: mean survival time, dose: 100.0 mg/kg/injection, schedule: Q04DX003 (ip), vehicle: saline with Tween-80
[2] = endpoint: mean survival time, dose: 200.0 mg/kg/injection, schedule: Q04DX003 (ip), vehicle: saline with Tween-80

Measured: T/C

CC1(C)CSC(=S)N1
inactive: endpoint: mean survival time, dose: 2.5 mg/kg/injection, schedule: Q01DX009 (ip), vehicle: saline with Tween-80 98 % of control | endpoint: mean survival time, dose: 5.0 mg/kg/injection, schedule: Q01DX009 (ip), vehicle: saline with Tween-80 95 % of control | endpoint: mean survival time, dose: 5.0 mg/kg/injection, schedule: Q04DX003 (ip), vehicle: saline with Tween-80 103 % of control | endpoint: mean survival time, dose: 10.0 mg/kg/injection, schedule: Q01DX009 (ip), vehicle: saline with Tween-80 107 % of control | endpoint: mean survival time, dose: 10.0 mg/kg/injection, schedule: Q04DX003 (ip), vehicle: saline with Tween-80 92 % of control

CC(C)([NH-])C[NH-].[Cl][Pt+2][Cl]
inactive: endpoint: median survival time, dose: 10.0 mg/kg/injection, schedule: Q04DX003 (ip), vehicle: saline with Tween-80 98 % of control | endpoint: median survival time, dose: 20.0 mg/kg/injection, schedule: Q04DX003 (ip), vehicle: saline with Tween-80 95 % of control | endpoint: median survival time, dose: 40.0 mg/kg/injection, schedule: Q04DX003 (ip), vehicle: saline with Tween-80 102 % of control | endpoint: median survival time, dose: 80.0 mg/kg/injection, schedule: Q04DX003 (ip), vehicle: saline with Tween-80 103 % of control and 112 % of control | endpoint: median survival time, dose: 160.0 mg/kg/injection, schedule: Q04DX003 (ip), vehicle: saline with Tween-80 117 % of control

CC(=O)OCC1OC(OC(C)=O)C(On2nnc3c(-c4ccccc4)c(C)nn32)C(OC(C)=O)C1OC(C)=O (configuration not stated)
inactive: endpoint: median survival time, dose: 12.5 mg/kg/injection, schedule: Q01DX005 (ip), vehicle: Klucel (hydroxypropylcellulose) (HPC) 93 % of control | endpoint: median survival time, dose: 25.0 mg/kg/injection, schedule: Q01DX005 (ip), vehicle: Klucel (hydroxypropylcellulose) (HPC) 95 % of control | endpoint: median survival time, dose: 50.0 mg/kg/injection, schedule: Q01DX005 (ip), vehicle: Klucel (hydroxypropylcellulose) (HPC) 97 % of control | endpoint: median survival time, dose: 100.0 mg/kg/injection, schedule: Q01DX005 (ip), vehicle: Klucel (hydroxypropylcellulose) (HPC) 95 % of control

N=C(N)SCc1cccs1
inactive: endpoint: mean survival time, dose: 25.0 mg/kg/injection, schedule: Q01DX009 (ip), vehicle: saline 100 % of control | endpoint: mean survival time, dose: 50.0 mg/kg/injection, schedule: Q01DX009 (ip), vehicle: saline 103 % of control | endpoint: mean survival time, dose: 100.0 mg/kg/injection, schedule: Q01DX009 (ip), vehicle: saline 95 % of control

O=[N+]([O-])c1ccc(/C=C2\c3ccccc3-c3nc4ccccc4nc32)cc1
inactive: endpoint: mean survival time, dose: 75.0 mg/kg/injection, schedule: Q01DX009 (ip), vehicle: saline 86 % of control | endpoint: mean survival time, dose: 150.0 mg/kg/injection, schedule: Q01DX009 (ip), vehicle: saline 88 % of control | endpoint: mean survival time, dose: 300.0 mg/kg/injection, schedule: Q01DX009 (ip), vehicle: saline 95 % of control

CCCCNC(=O)c1ccc2c(c1)C(=O)N(CCCC)C2=O
inactive: endpoint: mean survival time, dose: 100.0 mg/kg/injection, schedule: Q04DX002 (ip), vehicle: saline with Tween-80 101 % of control | endpoint: mean survival time, dose: 200.0 mg/kg/injection, schedule: Q04DX002 (ip), vehicle: saline with Tween-80 104 % of control | endpoint: mean survival time, dose: 400.0 mg/kg/injection, schedule: Q04DX002 (ip), vehicle: saline with Tween-80 93 % of control

O=C(NC(=O)c1ccccc1)c1ccccc1
inactive: endpoint: mean survival time, dose: 100.0 mg/kg/injection, schedule: Q01DX001 (ip), vehicle: Klucel (hydroxypropylcellulose) (HPC) 101 % of control | [1] 103 % of control | endpoint: mean survival time, dose: 200.0 mg/kg/injection, schedule: Q01DX001 (ip), vehicle: Klucel (hydroxypropylcellulose) (HPC) 102 % of control | [2] 102 % of control | endpoint: mean survival time, dose: 400.0 mg/kg/injection, schedule: Q01DX001 (ip), vehicle: Klucel (hydroxypropylcellulose) (HPC) 96 % of control | endpoint: mean survival time, dose: 400.0 mg/kg/injection, schedule: Q04DX003 (ip), vehicle: saline with Tween-80 97 % of control

CC1CCC(C(C)C2C(O)CC3C4CC=C5CC(O)CCC5(C)C4CCC32C)NC1 (configuration not stated)
inactive: endpoint: mean survival time, dose: 50.0 mg/kg/injection, schedule: Q04DX003 (ip), vehicle: saline with Tween-80 93 % of control | [1] 90 % of control and 96 % of control | [2] 87 % of control and 98 % of control
